Assay results from patent publication US20120202822A1, “COMBINATION” (priority 2009, published 2012).

Tested on: seven Compound A resistant clones derived from the A375 PF11 melanoma cell line
Assay: Cell Growth Inhibition Assay, summary over resistant clones
Assay type: cell-based
Settings: Homo sapiens, A375P-F11, 72 h, 3 days, read-out: IC50s, Compound B alone, range over clones
Protocol: Melanoma A375 PF11 line was derived from A375 (ATCC). 12R5-1, 12R5-3, 12R8-1, 12R8-3, 16R5-2, 16R6-3 and 16R6-4 are single cell clones derived from mixed populations of A375 PF11 cells that were selected to grow in Compound A to concentrations of 1200 and 1600 nM. All lines were cultured in RPMI 1640 medium containing 10% fetal bovine serum (FBS).
All cells were cultured for a minimum of 72 hours prior to cell plating. Cells were assayed in a 96-well tissue culture plate (NUNC 136102) of RPMI medium containing 10% FBS for all cells at 1,000 cells per well. Approximately 24 hours after plating, cells were exposed to ten, three-fold serial dilutions of compound or the combination of the two agents at a constant molar to molar ratio of 1:10 Compound A to Compound B in RPMI media containing 10% FBS. Cells were incubated in the presence of compounds for 3 days. ATP levels were determined by adding Cell Titer Glo® (Promega) according to the manufacturer's protocol. Briefly, Cell Titer Glo® was added each plate, incubated for 30 minutes then luminescent signal was read on the SpectraMax L plate reader with a 0.5 sec integration time.
Inhibition of cell growth was estimated after treatment with compound or combination of compounds for three days and comparing the signal to cells treated with vehicle (DMSO). Cell growth was calculated relative to vehicle (DMSO) treated control wells. […]

IC50: 0.041 to 0.212 µM
Structure (SMILES): COc1ncc(-c2ccc3nccc(-c4ccnnc4)c3c2)cc1NS(=O)(=O)c1ccc(F)cc1F [Compound B, 2,4-difluoro-N-{2-(methyloxy)-5-[4-(4-pyridazinyl)-6-quinolinyl]-3-pyridinyl}benzenesulfonamide]
